Test results as given in patent US6492174B1, “Methods of initiating embryogenic cultures in plants” (Institute of Paper Science & Technology, priority 2000, dated 2002).

How the values were obtained:
Type in all cases: cell-based
[1] = tested on: Douglas fir stage 3-5 zygotic embryos attached to megagametophytes; assay: Douglas fir initiation on solid media #121 with brassinolide, ABA, ABA pre-soak or elevated pressure
Description: The explants used in this experiment were isolated from Douglas fir cones collected in mid-summer from four open-pollinated trees, representing a multiplicity of genotypes. Explants were stage 3-5 (early-midstage) zygotic embryos attached to megagametophytes, prepared as described in Example 2. The embryo and attached megagametophyte were then placed next to each other on the treatment media. As in Example 2, each replication consisted of ten explants in a single petri dish. Each treatment contained four replications per treatment, per genotype.
The treatment media were based on solid media #121, the composition of which is described in Table 5. Media #121 contains no ABA or brassinolide. Treatment #1, the control, consisted of explants cultured on media #121 alone. In Treatment #2, explants were cultured on media #121 containing 0.1 μM brassinolide. In Treatment #3, explants were cultured on media #121 containing 1 ppm ABA. In treatment #4, explants were soaked in liquid media containing 5 ppm ABA for 30 minutes prior to being placed on #121 media. In Treatment #5, explants were cultured on media #121 under 1.5 atmospheres of pressure. The petri dishes were wrapped in PARAFILM and incubated at 23-24° C. in the dark.

[2] = tested on: Loblolly pine megagametophytes; assay: Elevated pressure in combination with brassinolide, ABA pre-soak or liquid media #1038, 8 weeks; details: for % Megagametophytes Extruding / % Megagametophytes Initiating: Br 0.1 μM in media #1042, ABA soak 5 ppm 30 minute
Method: The previous examples indicate that elevated pressure can enhance extrusion and initiation. This experiment was designed to test the effect of elevated pressure in combination with other treatments to determine the optimal conditions for promoting extrusion and initiation.
Megagametophytes in some treatments received a 30 minute pre-culturing soak in liquid media (#1042 minus the gelling agent) containing 5 ppm ABA. Megagametophytes in Treatments 9 and 10 were fully immersed in liquid media #1038. The experiment consisted of three replications per treatment, per genotype.
Five different treatments were used, each cultured under 1.0 or 1.5 atmospheres for a total of ten treatments (See Table 33).
After 8 weeks culturing, the treatments were scored. Extrusion and initiation were increased by elevated pressure in all treatments.

[3] = tested on: Loblolly pine megagametophytes; assay: 30 minute abscisic acid soaking pre-treatment, culture on solid media #1042 with or without 0.1 μM brassinolide, eight weeks
Method: In this experiment, the effects of ovule pre-treatment by soaking with abscisic acid solutions of varying concentration was investigated. The abscisic acid treatment was tested on two media, one containing brassinolide and one lacking in brassinolide. The explants were megagametophytes from open pollinated summer cones of four individual trees, representing a multiplicity of genotypes. The seeds contained Stage 2-4 zygotic embryos. Megagametophytes were excised from sterilized seeds, as described in Example 4.
Prior to culturing, the megagametophytes were soaked for 30 minutes in liquid growth media (media #1042, Table 47, minus the gelling agent) containing 0, 5, 10 and 20 ppm abscisic acid. After soaking, the megagametophytes were placed on either one of two solid growth media. While still liquid, 2 ml media was poured into wells on a culture well plate and allowed to solidify. Half the soaked megagametophytes were placed on solid media #1042 (Table 47) and half were placed on solid media #1042 with 0.1 μM brassinolide added.
On solid media where brassinolide was present, there was a dramatic difference in extrusion and initiation between megagametophytes soaked in zero and 5 ppm ABA solutions (Treatments #5 and #6) compared to those soaked in 10 and 20 ppm ABA solutions (Treatments #7 and #8). […] In contrast, megagametophytes treated with higher amounts of ABA in Treatments 7 and 8 had the highest initiation frequencies of any treatment. […] Alternatively, there may have been an interaction between brassinolide and ABA such that low ABA plus brassinolide inhibits extrusion, with this inhibition overcome when ABA concentration is higher.

[4] = tested on: Norway spruce zygotic embryos; assay: Norway spruce initiation on solid media #56 with ABA, brassinolide or elevated pressure, ten weeks
Method: Explants were zygotic embryos flipped out of the megagametophyte, prepared as in Example 1. The experiment consisted of five replications, with a replication consisting of ten explants in a single petri dish. Explants were cultured on solid media #56 (Table 3). Treatment #1 consisted of explants on media #56. In Treatment #2, the medium additionally contained 1 ppm ABA. In Treatment #3, the media contained […] brassinolide. In Treatment #4, the explants were cultured under 1.5 atmospheres of pressure. After ten weeks, the explants were examined and the frequency of embryogenic culture initiation was scored (Table 43).

[5] = genotype 7-100, + Pressure 1.5 atm
[6] = genotype 11-1095, + Pressure 1.5 atm
[7] = genotype 21-6, + Pressure 1.5 atm
[8] = genotype 7-1051, 5 ppm ABA/No Br
[9] = genotype 7-1051, 10 ppm ABA/No Br
[10] = genotype 7-1051, 20 ppm ABA/No Br
[11] = genotype M7-56, 5 ppm ABA/No Br
[12] = genotype M7-56, 10 ppm ABA/No Br
[13] = genotype M7-56, 20 ppm ABA/No Br
[14] = genotype TC5-1501, 5 ppm ABA/No Br
[15] = genotype TC5-1501, 10 ppm ABA/No Br
[16] = genotype TC5-1501, 20 ppm ABA/No Br
[17] = genotype TC11-109, 5 ppm ABA/No Br
[18] = genotype TC11-109, 10 ppm ABA/No Br
[19] = genotype TC11-109, 20 ppm ABA/No Br
[20] = genotype 7-1051, 0 ppm ABA/ +Br (0.10 μM)
[21] = genotype M7-56, 0 ppm ABA/ +Br (0.10 μM)
[22] = genotype TC5-1501, 0 ppm ABA/ +Br (0.10 μM)
[23] = genotype TC11-109, 0 ppm ABA/ +Br (0.10 μM)
[24] = total, 0 ppm ABA/ +Br (0.10 μM)

Compound: CC1=CC(=O)CC(C)(C)C1(O)/C=C/C(C)=C\C(=O)O (stereo not shown) [ABA, 5-(1-hydroxy-2,6,6,-trimethyl-4-oxo-2-cyclohexen-1-yl)-3-methyl-2,4-penta dienoic acid]
- % of Megagametophytes Initiating - Mean ([1]; genotype T0232l, +1 ppm ABA in media #121): 21.1%
- % of Megagametophytes Initiating - Mean ([1]; genotype T0232l, ABA pre-soak (5 ppm, 30 minutes)): 27.6%
- % of Megagametophytes Initiating - Mean ([1]; genotype T0235l, +1 ppm ABA in media #121): 10.5%
- % of Megagametophytes Initiating - Mean ([1]; genotype T0235l, ABA pre-soak (5 ppm, 30 minutes)): 25.0%
- % of Megagametophytes Initiating - Mean ([1]; genotype T0293l, +1 ppm ABA in media #121): 34.6%
- % of Megagametophytes Initiating - Mean ([1]; genotype T0293l, ABA pre-soak (5 ppm, 30 minutes)): 26.9%
- % of Megagametophytes Initiating - Mean ([1]; genotype T0525l, +1 ppm ABA in media #121): 10.0%
- % of Megagametophytes Initiating - Mean ([1]; genotype T0525l, ABA pre-soak (5 ppm, 30 minutes)): 20.0%
- % of Megagametophytes Initiating - Mean ([1]; total, +1 ppm ABA in media #121): 19.1%
- % of Megagametophytes Initiating - Mean ([1]; total, ABA pre-soak (5 ppm, 30 minutes)): 24.6%
- % Megagametophytes Extruding ([2]; Total, 1.0 atm): 38.4%
- % Megagametophytes Initiating ([2]; Total, 1.0 atm): 21.5%
- % Megagametophytes Extruding ([2]; Total, + Pressure 1.5 atm): 46.7%
- % Megagametophytes Initiating ([2]; Total, + Pressure 1.5 atm): 24.4%
- % Megagametophytes Extruding ([2]; genotype 7-100, 1.0 atm): 10.0 (5.8) %
- % Megagametophytes Initiating ([2]; genotype 7-100, 1.0 atm): 3.3 (3.3) %
- % Megagametophytes Extruding [2, 5]: 23.3 (13.3) %
- % Megagametophytes Initiating [2, 5]: 3.3 (3.3) %
- % Megagametophytes Extruding ([2]; genotype 11-1095, 1.0 atm): 50.0 (0.0) %
- % Megagametophytes Initiating ([2]; genotype 11-1095, 1.0 atm): 23.3 (6.7) %
- % Megagametophytes Extruding [2, 6]: 50.0 (5.8) %
- % Megagametophytes Initiating [2, 6]: 20.0 (5.8) %
- % Megagametophytes Extruding ([2]; genotype 21-6, 1.0 atm): 55.2 (8.7) %
- % Megagametophytes Initiating ([2]; genotype 21-6, 1.0 atm): 37.8 (11.8) %
- % Megagametophytes Extruding [2, 7]: 66.7 (8.8) %
- % Megagametophytes Initiating [2, 7]: 50.0 (11.5) %
- % Megagametophytes Extruding [3, 8]: 53.3 (8.8) %
- Embryogenic Culture Initiation - % Megagametophytes Extruding [3, 8]: 20.0 (10.0) %
- % Megagametophytes Extruding [3, 9]: 30.0 (5.8) %
- Embryogenic Culture Initiation - % Megagametophytes Extruding [3, 9]: 6.7 (3.3) %
- % Megagametophytes Extruding [3, 10]: 40.0 (5.8) %
- Embryogenic Culture Initiation - % Megagametophytes Extruding [3, 10]: 13.3 (3.3) %
- % Megagametophytes Extruding [3, 11]: 20.0 (5.8) %
- Embryogenic Culture Initiation - % Megagametophytes Extruding [3, 11]: 13.3 (3.3) %
- % Megagametophytes Extruding [3, 12]: 26.7 (6.7) %
- Embryogenic Culture Initiation - % Megagametophytes Extruding [3, 12]: 13.3 (3.3) %
- % Megagametophytes Extruding [3, 13]: 36.7 (8.8) %
- Embryogenic Culture Initiation - % Megagametophytes Extruding [3, 13]: 6.7 (6.7) %
- % Megagametophytes Extruding [3, 14]: 33.3 (6.7) %
- Embryogenic Culture Initiation - % Megagametophytes Extruding [3, 14]: 10.0 (0.0) %
- % Megagametophytes Extruding [3, 15]: 16.7 (8.8) %
- Embryogenic Culture Initiation - % Megagametophytes Extruding [3, 15]: 3.3 (3.3) %
- % Megagametophytes Extruding [3, 16]: 40.0 (11.5) %
- Embryogenic Culture Initiation - % Megagametophytes Extruding [3, 16]: 6.7 (3.3) %
- % Megagametophytes Extruding [3, 17]: 33.3 (3.3) %
- Embryogenic Culture Initiation - % Megagametophytes Extruding [3, 17]: 10.0 (5.8) %
- % Megagametophytes Extruding [3, 18]: 46.7 (13.3) %
- Embryogenic Culture Initiation - % Megagametophytes Extruding [3, 18]: 13.3 (3.3) %
- % Megagametophytes Extruding [3, 19]: 46.7 (12.0) %
- Embryogenic Culture Initiation - % Megagametophytes Extruding [3, 19]: 13.3 (3.3) %
- promotion of extrusion or initiation ([3]; soaking pretreatment, media where no brassinolide was present (Treatments #1-4)): did not promote extrusion or initiation
- % Megagametophytes Extruding ([3]; total, 5 ppm ABA/No Br): 35.0%
- Embryogenic Culture Initiation - % Megagametophytes Extruding ([3]; total, 5 ppm ABA/No Br): 13.3%
- % Megagametophytes Extruding ([3]; total, 10 ppm ABA/No Br): 30.0%
- Embryogenic Culture Initiation - % Megagametophytes Extruding ([3]; total, 10 ppm ABA/No Br): 9.2%
- % Megagametophytes Extruding ([3]; total, 20 ppm ABA/No Br): 40.9%
- Embryogenic Culture Initiation - % Megagametophytes Extruding ([3]; total, 20 ppm ABA/No Br): 10.0%
- % Initiating (std. error) ([4]; 1 ppm ABA added to medium #56): 47.4 (5.5) %

Compound: CC(C)[C@H](C)[C@@H](O)[C@H](O)[C@@H](C)[C@H]1CC[C@H]2[C@@H]3COC(=O)[C@H]4C[C@H](O)[C@H](O)C[C@]4(C)[C@H]3CC[C@]12C [brassinolide]
- % of Megagametophytes Initiating - Mean ([1]; genotype T0232l, +0.1 μM Br in media #121): 27.8%
- % of Megagametophytes Initiating - Mean ([1]; genotype T0235l, +0.1 μM Br in media #121): 21.8%
- % of Megagametophytes Initiating - Mean ([1]; genotype T0293l, +0.1 μM Br in media #121): 34.6%
- % of Megagametophytes Initiating - Mean ([1]; genotype T0525l, +0.1 μM Br in media #121): 30.0%
- % of Megagametophytes Initiating - Mean ([1]; total, +0.1 μM Br in media #121): 31.1%
- % Megagametophytes Extruding ([2]; Total, 1.0 atm): 32.2%
- % Megagametophytes Initiating ([2]; Total, 1.0 atm): 24.2%
- % Megagametophytes Extruding ([2]; Total, + Pressure 1.5 atm): 55.9%
- % Megagametophytes Initiating ([2]; Total, + Pressure 1.5 atm): 38.7%
- increase of initiation frequency by pressure ([2]; Treatment #4 vs. #3): over 60%
- % Megagametophytes Extruding ([2]; genotype 7-100, 1.0 atm): 3.3 (3.3) %
- % Megagametophytes Initiating ([2]; genotype 7-100, 1.0 atm): 0.0 (0.0) %
- % Megagametophytes Extruding [2, 5]: 43.3 (8.8) %
- % Megagametophytes Initiating [2, 5]: 20.0 (5.8) %
- % Megagametophytes Extruding ([2]; genotype 11-1095, 1.0 atm): 56.7 (6.7) %
- % Megagametophytes Initiating ([2]; genotype 11-1095, 1.0 atm): 39.2 (11.6) %
- % Megagametophytes Extruding [2, 6]: 50.0 (21.7) %
- % Megagametophytes Initiating [2, 6]: 39.2 (18.6) %
- % Megagametophytes Extruding ([2]; genotype 21-6, 1.0 atm): 36.7 (6.7) %
- % Megagametophytes Initiating ([2]; genotype 21-6, 1.0 atm): 33.3 (8.8) %
- % Megagametophytes Extruding [2, 7]: 74.4 (12.4) %
- % Megagametophytes Initiating [2, 7]: 56.9 (13.7) %
- % Megagametophytes Extruding [3, 20]: 13.3 (6.7) %
- Embryogenic Culture Initiation - % Megagametophytes Extruding [3, 20]: 0.0 (0.0) %
- % Megagametophytes Extruding [3, 21]: 3.3 (3.3) %
- Embryogenic Culture Initiation - % Megagametophytes Extruding [3, 21]: 0.0 (0.0) %
- % Megagametophytes Extruding [3, 22]: 0.0 (0.0) %
- Embryogenic Culture Initiation - % Megagametophytes Extruding [3, 22]: 0.0 (0.0) %
- % Megagametophytes Extruding [3, 23]: 0.0 (0.0) %
- Embryogenic Culture Initiation - % Megagametophytes Extruding [3, 23]: 0.0 (0.0) %
- % Megagametophytes Extruding [3, 24]: 4.2%
- Embryogenic Culture Initiation - % Megagametophytes Extruding [3, 24]: 0%
- % Initiating (std. error) ([4]; 0.1 pM brassinolide added to medium #56): 46.2 (6.1) %
